Measurements: paper PMC3514653 (Neuromodulation : journal of the International …, 2012)
Like-named read-outs stand apart in the source and are kept apart here. Marks after values point to notes of the source that are not given here.

Columns and labels:
in vivo [1] = conditions: beagle, dog
[2] = dog, in vivo
in vivo [3] = conditions: male, beagle, dog, iv, 0.1 mg/kg
[4] = in vivo; cited from earlier work
Male beagle dogs [5] = conditions: dog, in vivo, iv, 0.1 mg/kg
Male beagle dogs [6] = conditions: dog, in vivo
[7] = dog, in vivo; remark: listed apart in the source
Male beagle dogs [8] = conditions: dog, in vivo; remark: listed apart in the source
[9] = dog, in vivo; remark: listed apart in the source
in vivo [10] = conditions: male, beagle, dog, 10 ug
Male beagle dogs [11] = conditions: dog, in vivo; remark: listed apart in the source
[12] = in vivo; cited from earlier work; remark: listed apart in the source

Compound: CSCC[C@@H]1NC(=O)[C@H](CC(C)C)NC(=O)[C@H](CCCNC(=N)N)NC(=O)[C@H](CO)NC(=O)[C@@H]2CSSC[C@@H]3NC(=O)[C@H](CO)NC(=O)CNC(=O)[C@H]([C@@H](C)O)NC(=O)[C@H](CSSC[C@H](N)C(=O)N[C@@H](CCCCN)C(=O)NCC(=O)N[C@@H](CCCCN)C(=O)NCC(=O)N[C@@H](C)C(=O)N[C@@H](CCCCN)C(=O)N2)NC(=O)[C@H](CSSC[C@@H](C(N)=O)NC(=O)[C@H](CCCCN)NC(=O)CNC(=O)[C@H](CO)NC(=O)[C@H](CCCNC(=N)N)NC3=O)NC(=O)[C@H](CC(=O)O)NC(=O)[C@H](Cc2ccc(O)cc2)NC1=O [Ziconotide]
- CL/F (in vivo [1]; CL/F (infusion rate divided by steady-state concentration)): 134 mL/min
- level at 48 h (in vivo [1]; male, 5 ug/hr): 13.5 ng/mL
- CSF : plasma ratio [2]: approximately 20,000: 1
- Time of peak concentration in LCSF [2]: ≤ 3 min
- Vz/F [2]: 12932 – 33328^b mL
- Cmax (in vivo [3]): ~900 ng/mL
- Median LCSF half-life [4]: 4.5 h
- Volume of distribution [4]: 99 mL
- Respiratory rates (Male beagle dogs [5]): moderate decrease in respiratory rates for approximately 3 hr post injection
- Body temperature versus baseline (Male beagle dogs [6]): not different from pretreatment baseline measurements
- Time for elevated temperatures to return to baseline (Male beagle dogs [6]): 24 to 72 h
- Body temperature versus baseline (Male beagle dogs [6]; iv): not different from pretreatment baseline measurements
- Elimination T1/2 in CSF following IV injection [7]: 1.64 h
- Elimination T1/2 in plasma following IV injection [7]: 0.75 h
- Elimination half life after bolus IV delivery [7]: 1.6 h
- FCSF (absolute bioavailability in CSF after bolus IV) [7]: 0.013%
- Blood pressure and heart rate effect (Male beagle dogs [8]): modest decline in mean, diastolic, and systolic pressures and a mild tachycardia
- Effect upon blood pressure (Male beagle dogs [8]): no effect upon blood pressure
- Effect upon mean, diastolic, and systolic blood pressures (Male beagle dogs [8]): prominent reduction that persisted for the remainder of the infusion
- Duration of fall in blood pressures (Male beagle dogs [8]; iv, 0.1 mg/kg): > 8 h
- Effect upon heart rate (Male beagle dogs [8]; iv, 0.1 mg/kg): corresponding tachycardia
- Fall in mean, diastolic, and systolic pressures (Male beagle dogs [8]; iv, 0.1 mg/kg): approximately 40 mmHg
- LCSF: cisternal ratio at steady state [9]: ~1: 0.02
- Plasma concentration relative to that in the cisterna [9]: approximately 0.1 times
- Ratio of LCSF concentrations at infusion doses 1 and 5 µg/hr [9]: approximately 1: 4
- Terminal elimination T1/2 after termination of continuous infusion [9]: 2.47 h
- Time to peak plasma level [9]: ≤ 8 h
- Plasma concentration at steady state, 8–48 hr group mean ([9]; male, beagle, 5 ug/hr): 1.12 ng/mL
- CL/F (in vivo [10]): 196 mL/min
- Vd/F (in vivo [10]): 17.2 L
- AUC(0-inf) (in vivo [10]; AUC∞): 0.85 ng·h/mL
- bioavailability (in vivo [10]; iv): 53.5%
- Arousal, muscle tone, and coordination (Male beagle dogs [11]): not affected
- Diarrhea, dogs affected (Male beagle dogs [11]): 3 of the 5
- Severity of whole body trembling and ataxia (Male beagle dogs [11]): tendency for this to increase in severity
- Whole body trembling, dogs affected (Male beagle dogs [11]): 3 of the 5
- Persistence of observed effects (Male beagle dogs [11]; iv, 0.1 mg/kg): absent 24 hr post injection
- Scleral vasodilation and facial erythema, dogs affected (Male beagle dogs [11]; iv, 0.1 mg/kg): 2 of the 5
- Vomiting, dogs affected (Male beagle dogs [11]; iv, 0.1 mg/kg): 4 of the 5
- Diffusion of the peptide in rat brain parenchyma [12]: less than 1 mm
